Source: ChEMBL document CHEMBL5614372, “Advances in dual-targeting inhibitors of HDAC6 for cancer treatment” (Eur J Med Chem, 2024)

Columns and labels:
[1] = Inhibition of HSP90 (unknown origin) by fluorescence polarization assay; design: species or system Homo sapiens
Histone deacetylase 4 [2] = molecular target: T1, Histone deacetylase 4 (Homo sapiens, UniProt P56524); assay: Inhibition of HDAC4 (unknown origin)
[3] = molecular target: Phosphatidylinositol 4,5-bisphosphate 3-kinase catalytic subunit gamma isoform (Homo sapiens, UniProt P48736); assay: Inhibition of PI3Kgamma (unknown origin)
[4] = molecular target: Phosphatidylinositol 4,5-bisphosphate 3-kinase catalytic subunit beta isoform (Homo sapiens, UniProt P42338); assay: Inhibition of PI3Kbeta (unknown origin)
Histone deacetylase 1 = Histone deacetylase 1 (Homo sapiens, UniProt Q13547); assay: Inhibition of HDAC1 (unknown origin)
[5] = molecular target: Phosphatidylinositol 4,5-bisphosphate 3-kinase catalytic subunit delta isoform (Homo sapiens, UniProt O00329); assay: Inhibition of PI3Kdelta (unknown origin)
Histone deacetylase 8 = molecular target: T2, Histone deacetylase 8 (Homo sapiens, UniProt Q9BY41); assay: Inhibition of HDAC8 (unknown origin)
T2 sequence (Q9BY41 whole entry): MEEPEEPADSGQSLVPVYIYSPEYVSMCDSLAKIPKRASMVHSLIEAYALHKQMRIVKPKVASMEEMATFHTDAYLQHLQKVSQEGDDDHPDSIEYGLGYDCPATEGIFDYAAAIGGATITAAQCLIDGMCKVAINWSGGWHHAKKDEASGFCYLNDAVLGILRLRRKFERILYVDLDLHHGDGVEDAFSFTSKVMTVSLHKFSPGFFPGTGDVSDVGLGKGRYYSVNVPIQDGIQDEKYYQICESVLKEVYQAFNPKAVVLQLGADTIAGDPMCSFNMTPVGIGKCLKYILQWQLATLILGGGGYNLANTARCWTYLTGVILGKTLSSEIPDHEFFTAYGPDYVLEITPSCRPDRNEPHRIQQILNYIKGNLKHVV

Histone deacetylase 11 = Histone deacetylase 11 (Homo sapiens, UniProt Q96DB2); assay: Inhibition of HDAC11 (unknown origin)
[6] = molecular target: cGMP-specific 3',5'-cyclic phosphodiesterase (Homo sapiens, UniProt O76074); assay: Inhibition of PDE5A (unknown origin)
Histone deacetylase 2 = Histone deacetylase 2 (Homo sapiens, UniProt Q92769); assay: Inhibition of HDAC2 (unknown origin)
[7] = molecular target: High affinity cGMP-specific 3',5'-cyclic phosphodiesterase 9A (Homo sapiens, UniProt O76083); assay: Inhibition of PDE9A (unknown origin)
[8] = molecular target: T3, Protein deacetylase HDAC6 (Homo sapiens, UniProt Q9UBN7); assay: Inhibition of HDAC6 (unknown origin)
T3 sequence (Q9UBN7 whole entry): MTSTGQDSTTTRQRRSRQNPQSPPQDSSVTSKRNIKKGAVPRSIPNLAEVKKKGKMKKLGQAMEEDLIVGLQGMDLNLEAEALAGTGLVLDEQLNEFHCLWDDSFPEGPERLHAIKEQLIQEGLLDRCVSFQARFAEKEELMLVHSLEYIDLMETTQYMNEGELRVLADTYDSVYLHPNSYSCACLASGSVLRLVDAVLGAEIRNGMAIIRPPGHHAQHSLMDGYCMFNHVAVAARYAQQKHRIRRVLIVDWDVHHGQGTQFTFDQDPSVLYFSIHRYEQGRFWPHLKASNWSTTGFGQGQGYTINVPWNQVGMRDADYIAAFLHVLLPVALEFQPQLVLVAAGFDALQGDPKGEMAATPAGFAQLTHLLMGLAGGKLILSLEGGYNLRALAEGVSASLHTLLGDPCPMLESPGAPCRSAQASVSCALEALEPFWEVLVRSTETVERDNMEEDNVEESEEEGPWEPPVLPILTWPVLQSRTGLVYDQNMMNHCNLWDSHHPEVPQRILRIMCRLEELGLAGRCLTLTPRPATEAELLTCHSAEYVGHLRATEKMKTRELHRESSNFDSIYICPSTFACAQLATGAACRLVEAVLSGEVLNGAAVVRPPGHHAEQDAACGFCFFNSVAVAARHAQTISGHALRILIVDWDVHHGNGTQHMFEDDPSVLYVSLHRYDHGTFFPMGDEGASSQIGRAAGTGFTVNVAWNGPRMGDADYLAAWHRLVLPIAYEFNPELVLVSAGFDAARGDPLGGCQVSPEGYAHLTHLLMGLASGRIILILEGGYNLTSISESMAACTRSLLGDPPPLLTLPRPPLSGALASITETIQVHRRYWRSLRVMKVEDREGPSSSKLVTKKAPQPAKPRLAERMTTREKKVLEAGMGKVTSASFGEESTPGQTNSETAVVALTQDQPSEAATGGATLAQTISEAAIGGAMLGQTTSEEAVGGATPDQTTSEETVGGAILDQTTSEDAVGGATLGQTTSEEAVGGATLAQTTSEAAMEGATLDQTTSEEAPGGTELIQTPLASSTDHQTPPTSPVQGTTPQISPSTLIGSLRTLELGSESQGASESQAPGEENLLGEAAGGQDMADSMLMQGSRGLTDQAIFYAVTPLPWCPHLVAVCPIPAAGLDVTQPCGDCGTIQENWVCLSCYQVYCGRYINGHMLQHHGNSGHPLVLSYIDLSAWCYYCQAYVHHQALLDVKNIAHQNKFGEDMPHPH

[9] = molecular target: Glutamate [NMDA] receptor (Homo sapiens) (UniProt Q05586+Q12879+Q13224+O15399+O60391+Q14957+Q8TCU5); assay: Inhibition of NMDA receptor (unknown origin) at 10 uM relative to control; assay type: protein-complex assay
Histone deacetylase 7 [10] = molecular target: T4, Histone deacetylase 7 (Homo sapiens, UniProt Q8WUI4); assay: Inhibition of HDAC7 (unknown origin)
[11] = molecular target: Glutamate [NMDA] receptor; assay: Binding affinity to NMDA receptor (unknown origin) assessed as inhibition constant; assay type: protein-complex assay, Homo sapiens
Histone deacetylase 9 = Histone deacetylase 9 (Homo sapiens, UniProt Q9UKV0); assay: Inhibition of HDAC9 (unknown origin)
Histone deacetylase 3 [12] = molecular target: T5, Histone deacetylase 3 (Homo sapiens, UniProt O15379); assay: Inhibition of HDAC3 (unknown origin)
Histone deacetylase 5 [13] = molecular target: T6, Histone deacetylase 5 (Homo sapiens, UniProt Q9UQL6); assay: Inhibition of HDAC5 (unknown origin)
Histone deacetylase 4 [14] = molecular target: T1, Histone deacetylase 4; assay: Inhibition of human recombinant HDAC4 using fluorogenic HDAC substrate incubated for 20 mins by fluorescence based assay
Histone deacetylase 7 [15] = molecular target: T4, Histone deacetylase 7; assay: Inhibition of human recombinant HDAC7 using fluorogenic HDAC substrate incubated for 20 mins by fluorescence based assay
Histone deacetylase 3 [16] = molecular target: T5, Histone deacetylase 3; assay: Inhibition of human recombinant HDAC3 using fluorogenic HDAC substrate incubated for 20 mins by fluorescence based assay
[17] = molecular target: Serine/threonine-protein kinase B-raf (Homo sapiens, UniProt P15056); assay: Inhibition of wild type B-RAF (unknown origin)
Histone deacetylase 5 [18] = molecular target: T6, Histone deacetylase 5; assay: Inhibition of human recombinant HDAC5 using fluorogenic HDAC substrate incubated for 20 mins by fluorescence based assay
[19] = molecular target: T3, Protein deacetylase HDAC6; assay: Inhibition of human recombinant HDAC6 using fluorogenic HDAC substrate incubated for 20 mins by fluorescence based assay
[20] = molecular target: Estrogen receptor beta (Homo sapiens) (UniProt Q92731); assay: Binding affinity to ERbeta (unknown origin) assessed as relative binding affinity by fluorescence polarization assay relative to control
[21] = molecular target: Estrogen receptor (Homo sapiens) (UniProt P03372); assay: Binding affinity to ERalpha (unknown origin) assessed as relative binding affinity by fluorescence polarization assay relative to control
[22] = molecular target: Serine/threonine-protein kinase PAK 3 (Homo sapiens, UniProt O75914); assay: Inhibition of PAK3 (unknown origin)
[23] = molecular target: Serine/threonine-protein kinase PAK 2 (Homo sapiens, UniProt Q13177); assay: Inhibition of PAK2 (unknown origin)
[24] = molecular target: Serine/threonine-protein kinase PAK 1 (Homo sapiens, UniProt Q13153); assay: Inhibition of PAK1 (unknown origin)
[25] = molecular target: T3, Protein deacetylase HDAC6; assay: Inhibition of HDAC6 (unknown origin) extracted from baculovirus infected Sf9 insect cells using fluorescent peptide p53 (379 to 382 residues) RHKK(Ac)AMC as substrate by fluorescence based analysis
A549 = assay: Antitumor activity against human A549 cells xenografted in BALB/c nude mouse assessed as inhibition of tumor growth at 20 mg/kg, ip administered once daily for 21 days relative to control; assay type: functional; design: scale not given: the % may be the effect or the level left; conditions: time 21 day
[26] = molecular target: ALK tyrosine kinase receptor (Homo sapiens, UniProt Q9UM73); assay: Inhibition of ALK (unknown origin) using poly[Glu:Tyr] (4:1) as substrate incubated for 2 hrs by [gamma-33P]ATP assay
[27] = molecular target: Steroid 17-alpha-hydroxylase/17,20 lyase (Homo sapiens, UniProt P05093); assay: Inhibition of CYP17A1 (unknown origin); assay type: ADME
Sequence of Steroid 17-alpha-hydroxylase/17,20 lyase (P05093 whole entry): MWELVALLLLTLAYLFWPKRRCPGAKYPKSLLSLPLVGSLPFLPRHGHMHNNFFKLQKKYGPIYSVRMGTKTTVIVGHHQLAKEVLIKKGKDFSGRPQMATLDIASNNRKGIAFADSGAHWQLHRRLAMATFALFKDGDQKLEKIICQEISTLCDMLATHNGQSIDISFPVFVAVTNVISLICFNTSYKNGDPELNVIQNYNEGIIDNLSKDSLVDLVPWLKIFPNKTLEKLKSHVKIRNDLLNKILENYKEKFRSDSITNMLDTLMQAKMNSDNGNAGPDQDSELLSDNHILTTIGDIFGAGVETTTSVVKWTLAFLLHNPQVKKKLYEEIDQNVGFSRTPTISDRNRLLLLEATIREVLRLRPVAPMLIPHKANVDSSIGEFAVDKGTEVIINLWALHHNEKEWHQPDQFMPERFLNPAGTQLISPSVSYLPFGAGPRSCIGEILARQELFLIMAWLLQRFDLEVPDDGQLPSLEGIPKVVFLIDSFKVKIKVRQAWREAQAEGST

T1 sequence (P56524 whole entry, canonical isoform): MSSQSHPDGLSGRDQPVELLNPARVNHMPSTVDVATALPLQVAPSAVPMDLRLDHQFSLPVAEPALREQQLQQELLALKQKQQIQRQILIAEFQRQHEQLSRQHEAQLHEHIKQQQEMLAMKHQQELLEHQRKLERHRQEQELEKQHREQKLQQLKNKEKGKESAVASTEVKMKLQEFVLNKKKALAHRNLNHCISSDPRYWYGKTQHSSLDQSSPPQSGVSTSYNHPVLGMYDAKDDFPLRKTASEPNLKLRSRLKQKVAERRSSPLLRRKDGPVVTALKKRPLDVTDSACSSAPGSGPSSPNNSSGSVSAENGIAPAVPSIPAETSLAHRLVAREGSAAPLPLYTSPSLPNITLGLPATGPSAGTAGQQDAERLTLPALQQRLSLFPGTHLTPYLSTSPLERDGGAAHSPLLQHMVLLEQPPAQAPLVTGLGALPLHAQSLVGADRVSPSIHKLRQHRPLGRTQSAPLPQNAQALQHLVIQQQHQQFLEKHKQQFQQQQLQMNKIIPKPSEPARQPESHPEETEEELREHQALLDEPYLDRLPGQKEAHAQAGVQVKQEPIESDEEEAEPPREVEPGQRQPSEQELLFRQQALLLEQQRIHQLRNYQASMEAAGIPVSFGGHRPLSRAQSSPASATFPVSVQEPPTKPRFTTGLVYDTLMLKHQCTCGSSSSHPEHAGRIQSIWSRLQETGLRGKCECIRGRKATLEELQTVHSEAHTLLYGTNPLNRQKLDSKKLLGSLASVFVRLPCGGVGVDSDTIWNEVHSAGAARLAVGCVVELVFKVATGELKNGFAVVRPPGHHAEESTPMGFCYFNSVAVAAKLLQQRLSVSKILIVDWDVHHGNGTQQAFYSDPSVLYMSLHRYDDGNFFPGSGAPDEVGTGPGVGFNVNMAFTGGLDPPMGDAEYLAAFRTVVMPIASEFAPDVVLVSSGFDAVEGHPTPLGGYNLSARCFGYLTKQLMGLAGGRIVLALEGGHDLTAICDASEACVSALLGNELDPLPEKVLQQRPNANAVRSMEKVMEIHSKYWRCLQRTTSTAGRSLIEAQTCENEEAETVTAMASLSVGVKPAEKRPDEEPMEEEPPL
T5 sequence (O15379 whole entry): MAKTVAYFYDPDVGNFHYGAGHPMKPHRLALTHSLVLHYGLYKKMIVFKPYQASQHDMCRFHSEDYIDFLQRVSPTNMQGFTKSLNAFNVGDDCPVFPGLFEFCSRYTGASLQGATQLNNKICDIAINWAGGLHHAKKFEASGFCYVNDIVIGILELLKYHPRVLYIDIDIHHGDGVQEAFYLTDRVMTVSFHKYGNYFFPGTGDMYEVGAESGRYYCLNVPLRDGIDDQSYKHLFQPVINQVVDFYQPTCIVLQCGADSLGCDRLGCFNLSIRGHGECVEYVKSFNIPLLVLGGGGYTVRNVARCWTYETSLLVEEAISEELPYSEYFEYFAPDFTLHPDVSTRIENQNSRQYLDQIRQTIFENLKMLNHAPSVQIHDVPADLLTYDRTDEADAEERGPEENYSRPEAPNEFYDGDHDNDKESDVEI
Sequence of Histone deacetylase 1 (Q13547 whole entry, canonical isoform): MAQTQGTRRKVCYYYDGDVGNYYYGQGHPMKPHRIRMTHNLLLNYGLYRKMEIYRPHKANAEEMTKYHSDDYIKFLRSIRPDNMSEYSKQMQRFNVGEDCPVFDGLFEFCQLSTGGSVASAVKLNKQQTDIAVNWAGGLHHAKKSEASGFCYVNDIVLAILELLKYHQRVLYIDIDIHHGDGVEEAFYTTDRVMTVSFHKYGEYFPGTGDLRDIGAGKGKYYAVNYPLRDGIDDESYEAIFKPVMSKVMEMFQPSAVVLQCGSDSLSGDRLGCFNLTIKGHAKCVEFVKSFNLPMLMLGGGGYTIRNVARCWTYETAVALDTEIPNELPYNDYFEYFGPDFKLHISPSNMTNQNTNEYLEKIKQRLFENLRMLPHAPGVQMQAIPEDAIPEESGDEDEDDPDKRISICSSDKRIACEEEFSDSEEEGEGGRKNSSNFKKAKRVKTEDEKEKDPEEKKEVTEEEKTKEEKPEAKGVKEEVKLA
Sequence of Histone deacetylase 2 (Q92769 whole entry): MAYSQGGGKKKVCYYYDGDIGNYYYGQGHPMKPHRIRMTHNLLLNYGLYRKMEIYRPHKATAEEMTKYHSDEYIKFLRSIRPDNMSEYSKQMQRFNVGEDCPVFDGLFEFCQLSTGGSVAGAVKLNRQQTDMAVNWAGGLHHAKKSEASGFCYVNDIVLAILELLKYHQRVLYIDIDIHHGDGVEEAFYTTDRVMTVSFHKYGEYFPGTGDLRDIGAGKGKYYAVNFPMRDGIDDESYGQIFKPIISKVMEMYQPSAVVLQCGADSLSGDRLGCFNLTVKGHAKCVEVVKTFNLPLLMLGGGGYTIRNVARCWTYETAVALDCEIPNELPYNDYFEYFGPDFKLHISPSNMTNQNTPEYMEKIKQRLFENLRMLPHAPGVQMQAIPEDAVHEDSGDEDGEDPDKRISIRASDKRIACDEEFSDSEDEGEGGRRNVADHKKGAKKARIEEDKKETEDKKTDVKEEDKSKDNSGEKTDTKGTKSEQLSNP
Sequence of High affinity cGMP-specific 3',5'-cyclic phosphodiesterase 9A (O76083 whole entry): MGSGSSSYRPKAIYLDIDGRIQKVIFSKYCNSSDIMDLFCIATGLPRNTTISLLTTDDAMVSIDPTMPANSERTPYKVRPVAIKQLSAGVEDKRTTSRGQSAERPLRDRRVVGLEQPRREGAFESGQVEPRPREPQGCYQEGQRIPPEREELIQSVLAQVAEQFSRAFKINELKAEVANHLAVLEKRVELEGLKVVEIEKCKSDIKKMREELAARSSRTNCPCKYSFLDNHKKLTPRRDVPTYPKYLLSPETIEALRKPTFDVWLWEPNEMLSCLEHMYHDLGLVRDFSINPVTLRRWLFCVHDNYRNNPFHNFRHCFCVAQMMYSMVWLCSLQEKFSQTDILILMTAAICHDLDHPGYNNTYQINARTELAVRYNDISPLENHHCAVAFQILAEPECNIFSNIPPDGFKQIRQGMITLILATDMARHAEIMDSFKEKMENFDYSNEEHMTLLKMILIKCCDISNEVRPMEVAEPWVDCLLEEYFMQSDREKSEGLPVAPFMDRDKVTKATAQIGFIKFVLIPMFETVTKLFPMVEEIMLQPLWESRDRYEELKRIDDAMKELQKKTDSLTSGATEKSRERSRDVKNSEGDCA
T6 sequence (Q9UQL6 whole entry): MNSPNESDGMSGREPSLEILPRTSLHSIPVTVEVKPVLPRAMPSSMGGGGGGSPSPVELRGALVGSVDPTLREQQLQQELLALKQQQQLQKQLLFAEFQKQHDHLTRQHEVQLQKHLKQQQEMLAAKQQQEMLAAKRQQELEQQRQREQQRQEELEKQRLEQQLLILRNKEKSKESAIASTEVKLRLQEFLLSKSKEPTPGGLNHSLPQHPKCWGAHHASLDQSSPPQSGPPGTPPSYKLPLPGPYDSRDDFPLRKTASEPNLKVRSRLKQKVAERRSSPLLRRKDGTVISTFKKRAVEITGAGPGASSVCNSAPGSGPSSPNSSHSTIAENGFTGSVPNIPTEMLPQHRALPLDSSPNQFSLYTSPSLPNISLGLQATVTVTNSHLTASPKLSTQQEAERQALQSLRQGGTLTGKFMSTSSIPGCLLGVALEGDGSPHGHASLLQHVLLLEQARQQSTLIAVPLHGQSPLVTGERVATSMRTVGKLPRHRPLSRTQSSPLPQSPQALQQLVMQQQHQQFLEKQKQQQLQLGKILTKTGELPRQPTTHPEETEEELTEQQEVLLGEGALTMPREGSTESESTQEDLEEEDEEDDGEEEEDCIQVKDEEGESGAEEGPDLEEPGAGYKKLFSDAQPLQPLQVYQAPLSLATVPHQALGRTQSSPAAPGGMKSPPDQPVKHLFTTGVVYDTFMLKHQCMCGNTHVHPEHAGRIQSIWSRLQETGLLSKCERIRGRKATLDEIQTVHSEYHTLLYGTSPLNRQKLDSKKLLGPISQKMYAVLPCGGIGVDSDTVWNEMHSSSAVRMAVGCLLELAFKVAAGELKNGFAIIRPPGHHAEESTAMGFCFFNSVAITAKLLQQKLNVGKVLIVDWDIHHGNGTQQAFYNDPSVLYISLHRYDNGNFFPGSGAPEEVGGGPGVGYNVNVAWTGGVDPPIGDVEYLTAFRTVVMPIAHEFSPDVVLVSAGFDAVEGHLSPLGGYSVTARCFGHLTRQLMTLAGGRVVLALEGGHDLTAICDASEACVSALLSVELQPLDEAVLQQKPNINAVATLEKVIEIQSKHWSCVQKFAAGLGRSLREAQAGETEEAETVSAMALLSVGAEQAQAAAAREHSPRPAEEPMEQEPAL
Sequence of Histone deacetylase 11 (Q96DB2 whole entry): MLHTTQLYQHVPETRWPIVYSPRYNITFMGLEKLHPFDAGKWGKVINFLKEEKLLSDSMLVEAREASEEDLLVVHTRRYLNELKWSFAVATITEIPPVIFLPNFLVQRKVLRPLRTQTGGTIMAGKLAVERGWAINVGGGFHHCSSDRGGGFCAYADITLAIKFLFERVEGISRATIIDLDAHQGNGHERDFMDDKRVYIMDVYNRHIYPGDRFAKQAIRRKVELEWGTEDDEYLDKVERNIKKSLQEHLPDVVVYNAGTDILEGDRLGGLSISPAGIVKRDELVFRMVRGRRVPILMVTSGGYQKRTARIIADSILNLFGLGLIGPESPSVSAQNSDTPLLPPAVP

CC(C)c1cc(C(=O)N(C)Cc2ccc(C(=O)NO)cc2)c(O)cc1O
IC50 [1]: 61 nM

O=C(NO)c1ccc(/C=N/NC(=O)c2cc(N3CCOCC3)nc(-c3cccc(O)c3)n2)cc1
IC50 (Histone deacetylase 4 [2]): > 3000 nM | IC50 [3]: 1300 nM | IC50 [4]: 72.8 nM | IC50 (Histone deacetylase 1): > 3000 nM | IC50 [5]: 72.4 nM | IC50 (Histone deacetylase 8): 67.6 nM | IC50 (Histone deacetylase 11): > 3000 nM

C[C@@H]1CN(Cc2ccc(C(=O)NO)cc2)C[C@H]1c1nc2c(cnn2C2CCOCC2)c(=O)[nH]1
IC50 [6]: > 10000 nM | IC50 (Histone deacetylase 2): 3530 nM | IC50 [7]: 107 nM | IC50 [8]: 40 nM | IC50 (Histone deacetylase 1): 593 nM

CC12CC3CC(C)(C1)CC(NC(=O)/C=C/c1ccc(C(=O)NO)cc1)(C3)C2
IC50 (Histone deacetylase 4 [2]): > 10000 nM | inhibition [9]: 64.4% | IC50 (Histone deacetylase 2): 8000 nM | IC50 (Histone deacetylase 7 [10]): > 10000 nM | IC50 (Histone deacetylase 1): 2670 nM | Ki [11]: 560 nM | IC50 (Histone deacetylase 9): > 10000 nM | IC50 (Histone deacetylase 8): 620 nM | IC50 (Histone deacetylase 3 [12]): 2210 nM | IC50 (Histone deacetylase 5 [13]): > 10000 nM

CC(C)(C)c1nc(-c2cccc(NS(=O)(=O)c3c(F)cccc3F)c2F)c(-c2ccnc(NCCCCCCC(=O)NO)n2)s1
IC50 (Histone deacetylase 4 [14]): > 100000 nM | IC50 (Histone deacetylase 7 [15]): 3000 nM | IC50 (Histone deacetylase 3 [16]): 930 nM | IC50 [17]: 4 nM | IC50 (Histone deacetylase 5 [18]): > 52800 nM | IC50 [19]: 50 nM

N#CC(C#N)=C1C=C(/C=C/c2ccc(O)c(NC(=O)CCCCCCC(=O)NO)c2)Oc2ccccc21
RBA [20]: 0.25% | RBA [21]: 0.005%

O=C(CCCCCn1c(=O)c(-c2ccc(Cl)cc2Cl)cc2cnc(NC3CC3)nc21)NO
IC50 (Histone deacetylase 2): 157 nM | IC50 [8]: 38.2 nM | IC50 [22]: 441 nM | IC50 (Histone deacetylase 1): 233 nM | IC50 [23]: 193 nM | IC50 (Histone deacetylase 8): 190 nM | IC50 [24]: 13.6 nM | IC50 (Histone deacetylase 3 [12]): 177 nM

CCCCN(Cc1ccc(C(=O)NO)cc1)C(=O)CCCCn1cc(COc2cccc(Cc3cnc(NC(=O)CSc4nc(C)cc(C)n4)s3)c2)nn1
IC50 (Histone deacetylase 3 [12]): 2500 nM

CC(C)NC(=O)[C@H]1CC[C@@H](n2/c(=N/C(=O)c3ccccc3)[nH]c3cc(/C=C/C(=O)NO)ccc32)CC1
IC50 [25]: 1030 nM | Activity (A549): 80% | IC50 [26]: 16 nM

C[C@H](c1nc2c(cnn2C2CCCC2)c(=O)[nH]1)N1CC(Oc2ncccn2)C1
IC50 [7]: 32 nM

C[C@]12CC[C@H](OC(=O)CCCCCC(=O)NO)CC1=CCC1C2CC[C@]2(C)C(c3cccnc3)=CCC12 (some centres not stated)
IC50 [8]: 600 nM | IC50 [27]: 284 nM | IC50 (Histone deacetylase 8): > 10000 nM
